Assay results from patent publication US20160185774A1, “Anti-Infective Compounds” (priority 2013, published 2016).
≈ marks a conversion by molar mass, not a printed value.

Tested on: M. tuberculosis
Assay: microbe, parasite or virus in culture
Assay type: cell-based
Conditions: Mycobacterium tuberculosis, 120 h; read-out: QUM (MIC80)

Row | SMILES | MIC80
1 | CCc1nc2c(OC)cccn2c1C(=O)NCc1ccc(N2CCC(c3ccc(C(F)(F)F)cc3)CC2)cc1 [Compound 125] | 1 to 20 µM (≈ 0.537 to 10.7 µg/mL)
2 | CCc1nc2cc(Cl)ccn2c1C(=O)NCc1ccc(C(=O)N(C)Cc2ccc(F)cc2)cc1 [Compound 318] | 1 to 20 µM (≈ 0.479 to 9.58 µg/mL)
3 | CCc1nc2c(Br)cccn2c1C(=O)NCc1ccc(N2CCN(c3ccc(OC)cc3)CC2)cc1 [Compound 95] | < 1 µM
4 | CCc1nc2cc(Cl)ccn2c1C(=O)NCc1ccc(C(=O)N(C)c2ccc(F)cc2)cc1 [Compound 306] | 1 to 20 µM (≈ 0.465 to 9.3 µg/mL)
5 | CCc1nc2cc(Cl)ccn2c1C(=O)NCc1ccc(NC2C3CC4CC(C3)CC2C4)cc1 (stereo not drawn) [Compound 324] | < 1 µM
6 | CCc1nc2ccc(OC)cn2c1C(=O)NCc1ccc(N2CCC(c3ccccc3)CC2)cc1 [Compound 118] | < 1 µM
7 | CCc1nc2c(OC)cccn2c1C(=O)NCc1ccc(N2CCN(c3ccc(C)cc3)CC2)cc1 [Compound 104] | 1 to 20 µM (≈ 0.484 to 9.67 µg/mL)
8 | CCc1nc2c(Br)cccn2c1C(=O)NCc1ccc(N2CCN(c3ccc(C)cc3)CC2)cc1 [Compound 97] | < 1 µM
9 | CCc1nc2ccc(Br)cn2c1C(=O)NCc1ccc(N2CCN(c3ccc(C)cc3)CC2)cc1 [Compound 101] | < 1 µM
10 | CCc1nc2c(OC)cccn2c1C(=O)NCc1ccc(N2CCN(c3ccc(C(F)(F)F)cc3)CC2)cc1 [Compound 129] | 1 to 20 µM (≈ 0.538 to 10.8 µg/mL)
11 | CCc1nc2ccc(Cl)cn2c1C(=O)NCc1ccc(N2CCN(c3ccccc3)CC2)cc1 [Compound 68] | < 1 µM
12 | CCc1nc2ccc(Cl)cn2c1C(=O)NCc1ccc(C2CCN(C(=O)c3ccc(F)cc3)CC2)cc1 [Compound 243] | < 1 µM
13 | CCc1nc2ccc(C(F)(F)F)cn2c1C(=O)NCc1ccc(N2CCC(c3ccc(Cl)cc3)CC2)cc1 [Compound 226] | < 1 µM
14 | CCc1nc2c(Cl)cccn2c1C(=O)NCc1ccc(N2CCN(c3ccc(C(F)(F)F)cc3)CC2)cc1 [Compound 49] | < 1 µM
15 | CCc1nc2ccc(OC)cn2c1C(=O)NCc1ccc(N2CCC(c3ccc(Cl)cc3)CC2)cc1 [Compound 172] | < 1 µM
16 | CCc1nc2ccc(Cl)cn2c1C(=O)NCc1ccc(N2CCC(c3ccc(C)cc3)CC2)cc1 [Compound 7] | < 1 µM
17 | CCc1nc2ccc(C)cn2c1C(=O)NCc1ccc(N2CCN(c3ccc(OC(F)(F)F)cc3)CC2)cc1 [Compound 55] | < 1 µM
18 | CCc1nc2ccc(OC)cn2c1C(=O)NCc1ccc(N2CCN(c3ccc(OC)cc3)CC2)cc1 [Compound 111] | < 1 µM
19 | CCc1nc2cc(C)ccn2c1C(=O)NCc1ccc(N2CCN(c3ccccc3)CC2)cc1 [Compound 67] | < 1 µM
20 | CCc1nc2cc(C)ccn2c1C(=O)NCc1ccc(N2CCN(c3ccc(OC)cc3)CC2)cc1 [Compound 54] | < 1 µM
21 | Cc1nc2cc(Cl)ccn2c1C(=O)NCc1ccc(N2CCC(c3ccc(OC(F)(F)F)cc3)CC2)cc1 [Compound 300] | < 1 µM
22 | CCc1nc2c(Cl)cccn2c1C(=O)NCc1ccc(N2CCN(c3ccc(OC)cc3)CC2)cc1 [Compound 50] | < 1 µM
23 | CCc1nc2ccc(Cl)cn2c1C(=O)NCc1nc2ccc(Cl)cc2[nH]1 [Compound 260] | > 20 µM
24 | CCc1nc2cc(Cl)ccn2c1C(=O)NCc1ccc2oc(CN3CCOCC3)nc2c1 [Compound 332] | 1 to 20 µM (≈ 0.454 to 9.08 µg/mL)
25 | CCc1nc2cc(Br)ccn2c1C(=O)NCc1ccc(N2CCN(c3ccc(C(F)(F)F)cc3)CC2)cc1 [Compound 214] | < 1 µM

Row | SMILES | MIC80
26 | CCc1nc2ccccn2c1C(=O)NCc1ccc(N2CCC(c3ccc(C(F)(F)F)cc3)CC2)cc1 [Compound 230] | < 1 µM
27 | CCc1nc2ccc(OC)cn2c1C(=O)NCc1ccc(N2CCN(c3ccc(OC(F)(F)F)cc3)CC2)cc1 [Compound 107] | < 1 µM
28 | CCc1nc2ccc(Cl)cn2c1C(=O)NCc1ccc(N2CC[C@H](Oc3ccc(Cl)cc3)C2)cc1 [Compound 342] | < 1 µM
29 | CCc1nc2cc(C)ccn2c1C(=O)NCc1ccc(N2CCN(c3ccc(Cl)cc3)CC2)cc1 [Compound 59] | < 1 µM
30 | CCc1nc2c(Cl)cccn2c1C(=O)NCc1ccc(N2CCC(c3ccc(OC)cc3)CC2)cc1 [Compound 98] | < 1 µM
31 | CCc1nc2c(OC)cccn2c1C(=O)NCc1ccc(N2CCC(c3ccc(Cl)cc3)CC2)cc1 [Compound 212] | 1 to 20 µM (≈ 0.503 to 10.1 µg/mL)
32 | CCc1nc2cc(F)ccn2c1C(=O)NCc1ccc(N2CCC(c3ccc(F)cc3)CC2)cc1 [Compound 137] | < 1 µM
33 | Cc1nc2c(F)cccn2c1C(=O)NCc1ccc(N2CCC(c3ccc(OC(F)(F)F)cc3)CC2)cc1 [Compound 312] | < 1 µM
34 | CCc1nc2c(C(F)(F)F)cccn2c1C(=O)NCc1ccc(N2CCC(c3ccc(C)cc3)CC2)cc1 [Compound 25] | 1 to 20 µM (≈ 0.521 to 10.4 µg/mL)
35 | CCc1nc2ccc(Br)cn2c1C(=O)NCc1ccc(N2CCC(c3ccc(Cl)cc3)CC2)cc1 [Compound 159] | < 1 µM
36 | CCc1nc2c(F)cccn2c1C(=O)NCc1ccc(N2CCN(c3ccc(C(F)(F)F)cc3)CC2)cc1 [Compound 161] | < 1 µM
37 | CCc1nc2cc(OC)ccn2c1C(=O)NCc1ccc(N2CCN(c3ccc(C(F)(F)F)cc3)CC2)cc1 [Compound 57] | < 1 µM
38 | CCc1nc2c(C(F)(F)F)cccn2c1C(=O)NCc1ccc(N2CCN(c3ccc(C)cc3)CC2)cc1 [Compound 99] | 1 to 20 µM (≈ 0.522 to 10.4 µg/mL)
39 | CCc1nc2ccc(Cl)cn2c1C(=O)NCc1ccc(N2CCN(C(=O)c3ccc(F)cc3)CC2)cc1 [Compound 235] | < 1 µM
40 | CCc1nc2ccc(C)cn2c1C(=O)NCc1ccc(N2CCN(c3ccccc3)CC2)cc1 [Compound 9] | < 1 µM
41 | CCc1nc2cc(Cl)ccn2c1C(=O)NCc1ccc(N2CCC(c3ccc(OC)cc3)CC2)cc1 [Compound 205] | < 1 µM
42 | CCc1nc2ccc(Cl)cn2c1C(=O)NCc1ccc(N2CC[C@@H](Oc3ccc(Cl)cc3)C2)cc1 [Compound 340] | < 1 µM
43 | CCc1nc2c(C(F)(F)F)cccn2c1C(=O)NCc1ccc(N2CCC(c3ccc(C(F)(F)F)cc3)CC2)cc1 [Compound 88] | 1 to 20 µM (≈ 0.575 to 11.5 µg/mL)
44 | CCc1nc2ccc(C(F)(F)F)cn2c1C(=O)NCc1ccc(N2CCN(c3ccc(Cl)cc3)CC2)cc1 [Compound 121] | < 1 µM
45 | CCc1nc2ccc(F)cn2c1C(=O)NCc1ccc(N2CCN(c3ccc(OC(F)(F)F)cc3)CC2)cc1 [Compound 42] | < 1 µM
46 | CCc1nc2ccc(F)cn2c1C(=O)NCc1ccc(N2CCC(c3ccccc3)CC2)cc1 [Compound 165] | < 1 µM
47 | CCc1nc2ccc(OC)cn2c1C(=O)NCc1ccc(N2CCN(c3ccc(Cl)cc3)CC2)cc1 [Compound 128] | < 1 µM
48 | CCc1nc2cc(C(F)(F)F)ccn2c1C(=O)NCc1ccc(N2CCN(c3ccc(OC)cc3)CC2)cc1 [Compound 96] | < 1 µM
49 | CCc1nc2ccc(OC)cn2c1C(=O)NCc1ccc(N2CCC(c3ccc(C)cc3)CC2)cc1 [Compound 127] | < 1 µM
50 | CCc1nc2ccc(OC)cn2c1C(=O)NCc1ccc(N2CCC(c3ccc(OC(F)(F)F)cc3)CC2)cc1 [Compound 182] | < 1 µM

Row | SMILES | MIC80
51 | CCc1nc2c(C)cccn2c1C(=O)NCc1ccc(N2CCC(c3ccccc3)CC2)cc1 [Compound 73] | < 1 µM
52 | CCc1nc2cc(C(F)(F)F)ccn2c1C(=O)NCc1ccc(N2CCC(c3ccc(C)cc3)CC2)cc1 [Compound 24] | < 1 µM
53 | CCc1nc2ccc(C(F)(F)F)cn2c1C(=O)NCc1ccc(N2CCC(c3ccccc3)CC2)cc1 [Compound 178] | < 1 µM
54 | CCc1nc2c(C)cccn2c1C(=O)NCc1ccc(N2CCC(c3ccc(OC(F)(F)F)cc3)CC2)cc1 [Compound 181] | < 1 µM
55 | CCc1nc2cc(Cl)ccn2c1C(=O)NCc1cccc(C(=O)NCc2ccc(F)cc2)c1 [Compound 329] | 1 to 20 µM (≈ 0.465 to 9.3 µg/mL)
56 | CCc1nc2c(Br)cccn2c1C(=O)NCc1ccc(N2CCC(c3ccc(F)cc3)CC2)cc1 [Compound 189] | 1 to 20 µM (≈ 0.535 to 10.7 µg/mL)
57 | CCc1nc2ccccn2c1C(=O)NCc1ccc(N2CCN(c3ccc(C)cc3)CC2)cc1 [Compound 28] | < 1 µM
58 | CCc1nc2ccc(C(F)(F)F)cn2c1C(=O)NCc1ccc(N2CCC(c3ccc(C)cc3)CC2)cc1 [Compound 169] | < 1 µM
59 | CCc1nc2ccc(OC)cn2c1C(=O)NCc1ccc(N2CCC(c3ccc(C(F)(F)F)cc3)CC2)cc1 [Compound 126] | < 1 µM
60 | CCc1nc2c(C(F)(F)F)cccn2c1C(=O)NCc1ccc(N2CCN(c3ccc(Cl)cc3)CC2)cc1 [Compound 209] | 1 to 20 µM (≈ 0.542 to 10.8 µg/mL)
61 | CCc1nc2cc(Br)ccn2c1C(=O)NCc1ccc(N2CCC(c3ccc(F)cc3)CC2)cc1 [Compound 133] | < 1 µM
62 | CCc1nc2cc(Br)ccn2c1C(=O)NCc1ccc(N2CCN(c3ccc(C)cc3)CC2)cc1 [Compound 207] | < 1 µM
63 | CCc1nc2c(C)cccn2c1C(=O)NCc1ccc(N2CCN(c3ccccc3)CC2)cc1 [Compound 41] | < 1 µM
64 | CCc1nc2c(Br)cccn2c1C(=O)NCc1ccc(N2CCN(c3ccc(C(F)(F)F)cc3)CC2)cc1 [Compound 218] | < 1 µM
65 | CCc1nc2cc(C(F)(F)F)ccn2c1C(=O)NCc1ccc(N2CCC(c3ccc(OC(F)(F)F)cc3)CC2)cc1 [Compound 228] | < 1 µM
66 | CCc1nc2c(F)cccn2c1C(=O)NCc1ccc(N2CCC(c3ccc(OC)cc3)CC2)cc1 [Compound 15] | < 1 µM
67 | CCc1nc2ccc(Br)cn2c1C(=O)NCc1ccc(N2CCC(c3ccc(C(F)(F)F)cc3)CC2)cc1 [Compound 136] | < 1 µM
68 | CCc1nc2cc(Cl)ccn2c1C(=O)NCc1ccc2oc(C)nc2c1 [Compound 339] | 1 to 20 µM (≈ 0.369 to 7.38 µg/mL)
69 | CCc1nc2c(C)cccn2c1C(=O)NCc1ccc(N2CCN(c3ccc(OC)cc3)CC2)cc1 [Compound 38] | < 1 µM
70 | CCc1nc2ccc(Cl)cn2c1C(=O)NCc1ccc(N2CCC(OCc3ccccc3)CC2)cc1 [Compound 233] | < 1 µM
71 | CCc1nc2ccc(C(F)(F)F)cn2c1C(=O)NCc1ccc(N2CCC(c3ccc(OC)cc3)CC2)cc1 [Compound 120] | < 1 µM
72 | CCc1nc2ccc(F)cn2c1C(=O)NCc1ccc(N2CCC(c3ccc(Cl)cc3)CC2)cc1 [Compound 162] | < 1 µM
73 | CCc1nc2ccc(Cl)cn2c1C(=O)NCc1ccc(N2CCC(O)(CC)CC2)cc1 [Compound 238] | < 1 µM
74 | CCc1nc2cc(Cl)ccn2c1C(=O)NCc1ccc(-c2ccc(C(=O)O)cc2)cc1 [Compound 335] | < 1 µM
75 | CCc1nc2ccc(C)cn2c1C(=O)NCc1ccc(N2CCN(c3ccc(OC)cc3)CC2)cc1 [Compound 56] | < 1 µM
